Molecular target: Bifunctional purine biosynthesis protein ATIC (Homo sapiens, UniProt P31939)
Assay: Enzyme Activity Assays
Method: Enzyme activity assays of recombinant hGAR Tfase and recombinant hAICAR Tfase were performed as previously described. Kinetics of the enzyme reactions were monitored for 2 min after reaction initiation.

Bifunctional purine biosynthesis protein ATIC, sequence (P31939 whole entry): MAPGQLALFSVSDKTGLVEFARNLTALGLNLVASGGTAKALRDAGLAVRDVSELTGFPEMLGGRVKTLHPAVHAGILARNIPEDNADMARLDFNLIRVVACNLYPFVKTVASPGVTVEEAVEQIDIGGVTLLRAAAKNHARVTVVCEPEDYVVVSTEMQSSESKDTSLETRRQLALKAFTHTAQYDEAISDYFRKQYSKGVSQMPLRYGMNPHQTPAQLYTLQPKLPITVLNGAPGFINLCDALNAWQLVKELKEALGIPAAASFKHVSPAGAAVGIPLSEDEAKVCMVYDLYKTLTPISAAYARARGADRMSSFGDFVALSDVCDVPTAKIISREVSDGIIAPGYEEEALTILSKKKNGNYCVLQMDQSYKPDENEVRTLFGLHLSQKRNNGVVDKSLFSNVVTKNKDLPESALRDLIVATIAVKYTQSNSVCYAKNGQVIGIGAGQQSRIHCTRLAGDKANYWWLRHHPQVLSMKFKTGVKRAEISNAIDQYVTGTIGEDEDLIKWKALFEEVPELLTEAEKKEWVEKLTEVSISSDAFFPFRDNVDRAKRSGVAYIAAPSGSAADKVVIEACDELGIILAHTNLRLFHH

Ki: > 100 µM
Compound: Nc1nc2c(c(=O)[nH]1)C[C@@H](CCc1ccc(C(=O)NC(CCC(=O)O)C(=O)O)cc1)CN2 (stereo partly specified) [Lometrexol (3)]

Reference: BindingDB's records for doi:10.1021/bi4005182 (The Scripps Research Institute, 2013)
